# Article PMC10060354, “Discovery of a small molecule ligand of FRS2 that inhibits invasion and tumor growth” (Cellular Oncology, 2022)
# What was measured:
# SKOV3 flank tumors = experiment: Anti-tumor activity, SKOV3 flank xenograft model; type: in vivo, mice; conditions: 200 mg/kg PO once per day
# Procedure: SKOV3 model: SKOV3 cells were cultured in McCoy´s 5A (26,600–023, ThermoFisher) media (10%FCS) until P7. Freshly isolated cells (1 × 10^6) with a viability of 98% were subcutaneously transplanted to left flank of 8-week-old female mice in PBS/Matrigel (1:1). […] Tumor diameters were determined by calliper measurements 2 × weekly, body weight (BW) was measured as parameter for tolerability 2 × weekly. For assessing significance of differences between treatments at the individual timepoints, a two-way ANOVA analysis with Turkey’s multiple comparison test was performed.
# SKOV3 = experiment: CellTiter-Glo 3D cell viability; type: cell-based; conditions: Homo sapiens, SK-OV-3, full growth medium, 48 h
# Procedure: (§1) Cell viability was determined using CellTiter-Glo® 2D or 3D cell viability assays (#G9242, #G9682, Promega). 500 cells/25 µl were seeded in flat bottom (#781,091, Greiner bio-one) or U-low adhesion (#4516, Corning) 384-well plate, 24 h prior to treatment. Increasing concentrations of compounds are deposited on cells using a HP Digital Drug Dispenser with DMSO total volume normalization. After 48 h, the CellTiter-Glo® 2D or 3D reagent was added (volume/volume) following manufacturer’s instructions. Plates were incubated at RT (room temperature) under agitation for 30 min and luminescence representing the number of viable cells was quantified with a Cytation 3 imaging reader (BioTek®). Experiments were performed independently three times with three technical replicas each.
# DAOY = experiment: CellTiter-Glo 3D cell viability; type: cell-based; conditions: Homo sapiens, full growth medium, 48 h
# Procedure: as §1
# HCT116 = experiment: CellTiter-Glo 3D cell viability; type: cell-based; conditions: Homo sapiens, HCT-116, full growth medium, 48 h
# Procedure: as §1
# AGS = experiment: CellTiter-Glo 3D cell viability; type: cell-based; conditions: Homo sapiens, full growth medium, 48 h
# Procedure: as §1
# M059K = experiment: CellTiter-Glo 3D cell viability; type: cell-based; conditions: Homo sapiens, full growth medium, 48 h
# Procedure: as §1
# RT-112 = experiment: CellTiter-Glo 3D cell viability; type: cell-based; conditions: Homo sapiens, RT-112, 48 h
# Procedure: as §1
# [1] = mouse, in vivo
# Procedure: […]. Animals received an initial dose of 30 mg/kg. If the animals had no significant adverse effects within 60 min after treatment, the dose for the next cohort was increased. If one or more animals died or had significant adverse effects within 60 min after treatment, the dose for the next cohort was decreased. The testing stopped when all animals survived at the upper bound (200 mg/kg), or lower bound (3 mg/kg) had been reached. Full clinical examinations and body weight change were assessed. At each dose level, animals were observed, and mortality was noted daily after compound administration for three days. […] Body weights were recorded pre-dose and at 72 h.
# The next dose level was determined by the following scheme: • 30 mg/kg, if no death, 100 mg/kg, if no death, 200 mg/kg (upper bound) • 30 mg/kg, if no death, 100 mg/kg, if death, 50 mg/kg • 30 mg/kg, if death, 10 mg/kg, if death, 3 mg/kg (lower bound) • 30 mg/kg, if death, 10 mg/kg, if no death, 17 mg/kg
# FRS2 = target: T1, FRS2 (Homo sapiens, UniProt Q8WU20); experiment: CETSA by IB, cell lysates; type: binding; conditions: DAOY lysates
# T1 construct: we used the cellular thermal shift assay (CETSA [36]) in DAOY cells; endogenous in cells; host or cells: DAOY cells (intact cells, or freeze-thaw lysates)
# T1 sequence (Q8WU20 whole entry): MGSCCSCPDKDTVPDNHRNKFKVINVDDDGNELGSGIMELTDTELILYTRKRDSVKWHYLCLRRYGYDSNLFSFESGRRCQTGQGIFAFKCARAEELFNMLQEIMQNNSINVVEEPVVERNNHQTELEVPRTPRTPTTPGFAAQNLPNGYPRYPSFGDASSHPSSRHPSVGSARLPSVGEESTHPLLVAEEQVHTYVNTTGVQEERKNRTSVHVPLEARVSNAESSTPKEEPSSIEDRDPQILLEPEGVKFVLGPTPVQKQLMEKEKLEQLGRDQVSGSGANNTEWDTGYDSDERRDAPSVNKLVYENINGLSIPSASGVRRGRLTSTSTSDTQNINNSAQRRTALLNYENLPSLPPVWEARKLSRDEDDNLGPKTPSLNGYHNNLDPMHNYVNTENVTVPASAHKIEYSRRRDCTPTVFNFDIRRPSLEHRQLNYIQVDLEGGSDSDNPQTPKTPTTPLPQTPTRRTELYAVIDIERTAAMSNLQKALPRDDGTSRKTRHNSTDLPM
# Procedure: Four 15 cm dishes with 0.5 × 10^6 DAOY cells per dish were grown in full medium o.n. Medium was then removed, cells washed with PBS, detached using trypsin, collected in regular growth medium, centrifuged (300 g, 25 °C, 5 min), washed with PBS and resuspended in 550 µl ice-cold PBS. Cells were lysed with three freeze–thaw cycles (freeze in liquid N2, thaw in 25 °C heat block, vortex quickly) and lysates were placed in aliquots of 250 µl on ice. Compound or solvent was added to 10 µM final concentration and samples were incubated 20 min at 4 °C under rotation. Ten 20 µl aliquots were dispensed in a pre-cooled PCR plate, which was sealed with aluminum foil and placed on ice until heat treatments. Heat treatment was performed in a gradient PCR machine with the following temperatures 40.5, 43.6, 46.2, 48.8. 51.2, 53.8, 56.4, 58.3, 61.7 and 73.8 °C for three min. Plate with samples was kept at RT for 3 min and then kept on ice until centrifugation for 2 min at 500 × g at RT.
# Samples were incubated 1 h at 4 °C, with shaking at 500 rpm. Samples are filtered using a MultiScreenHTS HV-Filterplate (Merck, MSHVN4510). Membrane wells were prewetted with 50 µl PBS and centrifuged at 2000 g, RT, 3 min. The lysates were centrifuged at 2000 g, RT, 3 min and 40 µl of each supernatant was transferred to the filterplate and centrifuged at 500 g at RT for 5 min. […]
# AKT(pS473) = experiment: Immunoblotting, AKT phosphorylation; type: cell-based, human; conditions: SW780 cells
# Procedure: Cells were serum starved o.n. and 10 µM compound or 1 µM (BGJ398) were added 3 h before stimulation with 100 ng/ml bFGF for 15 min. Cells were lysed in RIPA buffer containing protease inhibitor cocktail and lysates resolved by SDS-PAGE. Membranes were probed with primary antibodies against phospho-FRS2, FRS2, phospho-ERK1/2, ERK1/2, pAKT, AKT and tubulin. Integrated density of immuno-reactive bands was quantified using Adobe Photoshop CS3. Integrated densities of phospho bands relative to non-phospho bands of same protein were calculated and plotted as fold-change relative to untreated control conditions. Compounds and BGJ398 were added in DMSO and corresponding DMSO concentrations were used in control samples.
SMILES,mice with less than average control tumor growth during treatment (SKOV3 flank tumors),tumor growth (result in words) (SKOV3 flank tumors),IC50 (SKOV3) [µM],IC50 (DAOY) [µM],IC50 (HCT116) [µM],IC50 (AGS) [µM],IC50 (M059K) [µM],IC50 (RT-112) [µM],single-dose tolerability (result in words) [1],ΔTm at 10 µM (FRS2) [°C],pAKT (result in words) (AKT(pS473))
O=[N+]([O-])c1c(Cl)cc(O)c2c1C1C=CCC1C(c1ccc(Cl)cc1)N2 (centres unmarked) [Compound 7],six out of the seven,significant reduction in tumor growth between d55 and d80,9.46,6.56,4.56,3.35,15.2,12.3,No mortality and body weight loss was observed,-4.93,
Cc1[nH]nc(-c2ccc(O)c(C)c2O)c1-c1nc2ccccc2s1 [Compound E12],,,,,,,,,,,increase in pAKT
